Results taken from patent publication US10633375B2, “Oxopicolinamide derivative, preparation method therefor and pharmaceutical use thereof” (Jiangsu Hengrui Medicine Co., Ltd., priority 2016, dated 2020).

Key:
[1] = biological target: Coagulation Factor XIa protease (Homo sapiens (Human), UniProt P03951); assay: Inhibition of Factor XIa detected by absorption photometry; type: biochemical; details: absorbance at 405 nm, 10 minutes at 37° C.
How it was run: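 Compounds were serially diluted in 100% DMSO (200-0.002 μM dilution series) before addition to the wells. FXIa enzyme solution at 2.5 μg/ml and substrate solution at 2 mM were then added, both stock concentrations. After 10 min at 37° C., absorbance was read at 405 nm.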

human blood = assay: In vitro anticoagulant effect on human blood (APTT, CT2); details: for CT2, concentration doubling APTT: concentration corresponding to 2 times the APTT of the blank control, human plasma
How it was run: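 Citrated human plasma (3.8% sodium citrate, 1:9) spiked with compound serially diluted in 100% DMSO (0.3–3000 μM dilution series; DMSO blank) and APTT measured on a coagulation analyser. CT2 is the compound concentration doubling blank APTT, from curve fitting.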

[2] = Pharmacokinetics assay in rats after intragastrical administration; type: in vivo, Sprague-Dawley (SD) rats; details: both sexes, Sprague-Dawley, rat, plasma, po, SD rats, intragastric, 2 mg/kg; for Vd/F: read-out: Apparent Distribution Volume Vz/F; for AUC: read-out: Area Under Curve AUC; for CL/F: read-out: Clearance CLz/F; for half-life: read-out: Half-Life T½ (converted); for MRT: read-out: Mean Residence Time MRT; for Cmax: read-out: Plasma Concentration Cmax
Text: Test Example 3. Pharmacokinetics Assay of the Compounds of the Present Invention
Rats were used as test animals. […] The pharmacokinetic behavior of the compounds of the present invention was studied and evaluated in rats.
56 healthy adult Sprague-Dawley (SD) rats, half male and half female, were purchased from SINO-BRITSH SIPPR/BK LAB. ANIMAL LTD., CO, with License No.: SCXK (Shanghai) 2008-0016.
2.3 Preparation of the Test Compounds
A certain amount of the test compound was weighed, and added with 5% by volume of DMSO, 5% by volume of Tween 80 and 90% normal saline to prepare a 0.2 mg/mL colorless, clear and transparent solution.
After an overnight fast, SD rats were intragastrically administered at a dose of 2.0 mg/kg and an administration volume of 10.0 mL/kg.
Blood (0.2 mL) was taken from the orbital sinus before administration and at 0.5, 1.0, 2.0, 4.0, 6.0, 8.0, 11.0 and 24.0 hours after administration. The samples were stored in heparin anticoagulation tubes, and centrifuged for 10 minutes at 3500 rpm at 4° C. to separate the blood plasma. The plasma samples were stored at −20° C. The rats were fed 2 hours after administration.
The content of the test compound in the plasma of rats after intragastric administration of different concentrations of the drug was determined: 25 μL of rat plasma at each time after administration was taken and added with 30 μL (100 ng/mL) of the internal standard solution of camptothecin and 200 μL of acetonitrile, shaken vertically for 5 minutes, and centrifuged for 10 minutes (4000 rpm). 3.0 μL of the supernatant was taken from the plasma samples for LC/MS/MS analysis.
4. Results of Pharmacokinetic Parameters
Pharmacokinetic parameters of the compounds of the present invention in rats are shown below.

Sequence of Coagulation Factor XIa protease (P03951 388-625): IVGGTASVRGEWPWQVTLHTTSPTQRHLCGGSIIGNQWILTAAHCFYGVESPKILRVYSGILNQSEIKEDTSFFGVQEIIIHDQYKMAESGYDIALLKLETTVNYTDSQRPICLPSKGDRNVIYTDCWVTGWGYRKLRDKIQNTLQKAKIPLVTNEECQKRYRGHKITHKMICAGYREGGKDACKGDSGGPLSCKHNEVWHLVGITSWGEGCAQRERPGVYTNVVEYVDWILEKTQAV
Sequence of Coagulation Factor XIa protease (P03951 19-387 partner): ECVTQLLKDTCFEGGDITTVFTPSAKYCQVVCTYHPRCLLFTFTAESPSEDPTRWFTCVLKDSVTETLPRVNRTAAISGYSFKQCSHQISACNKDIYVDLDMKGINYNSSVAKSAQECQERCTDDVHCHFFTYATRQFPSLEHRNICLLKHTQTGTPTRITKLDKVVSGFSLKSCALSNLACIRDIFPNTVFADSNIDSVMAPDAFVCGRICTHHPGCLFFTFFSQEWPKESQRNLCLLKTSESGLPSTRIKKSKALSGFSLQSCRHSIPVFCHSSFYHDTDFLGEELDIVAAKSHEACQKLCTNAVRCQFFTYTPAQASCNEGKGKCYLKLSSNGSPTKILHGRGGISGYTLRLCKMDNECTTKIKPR

## CCC(=O)c1ccc(Cl)cc1-c1cc(=O)n([C@@H](Cc2ccccc2)C(=O)Nc2ccc(C(=O)O)cc2)cc1OC [Example 9, (S)-4-(2-(4-(5-chloro-2-propionylphenyl)-5-methoxy-2-oxopyridin-1(2H)-yl)-3-phenylpropanamido)benzoic acid]
[1]
  IC50: 14 nM
Human blood; Table 2
  CT2, concentration doubling APTT: 2.4 µM
[2]
  Vd/F: 31.5 ± 16.1 L/kg
  AUC: 701 ± 615 ng·h/mL
  CL/F: 69.8 ± 35.2 mL/min/kg
  half-life: 5.55 ± 1.79 h
  MRT: 6.78 ± 2.36 h
  Cmax: 128 ± 50 ng/mL

## COc1cn([C@@H](Cc2ccccc2)C(=O)Nc2ccc(C(N)=O)cc2)c(=O)cc1-c1cc(Cl)ccc1C(C)=O [Example 11, (S)-4-(2-(4-(2-acetyl-5-chlorophenyl)-5-methoxy-2-oxopyridin-1(2H)-yl)-3-phenylpropanamido)benzamide]
[1]
  IC50: 13 nM
Human blood; Table 2
  CT2, concentration doubling APTT: 4.2 µM
[2]
  Vd/F: 40.2 ± 18.6 L/kg
  AUC: 125 ± 50 ng·h/mL
  CL/F: 299 ± 111 mL/min/kg
  half-life: 1.53 ± 0.33 h
  MRT: 2.12 ± 0.17 h
  Cmax: 73.1 ± 32.3 ng/mL

## CNC(=O)c1ccc(NC(=O)[C@H](Cc2ccccc2)n2cc(OC)c(-c3cc(Cl)ccc3C(C)=O)cc2=O)cc1 [Example 13, (S)-4-(2-(4-(2-acetyl-5-chlorophenyl)-5-methoxy-2-oxopyridin-1(2H)-yl)-3-phenylpropanamido)-N-methylbenzamide]
[1]
  IC50: 46 nM
Human blood; Table 2
  CT2, concentration doubling APTT: 6.0 µM
[2]
  Vd/F: 26.9 ± 14 L/kg
  AUC: 241 ± 168 ng·h/mL
  CL/F: 217 ± 151 mL/min/kg
  half-life: 1.67 ± 0.48 h
  MRT: 2.36 ± 1.05 h
  Cmax: 119 ± 78 ng/mL

## COc1cn([C@@H](Cc2ccccc2)C(=O)Nc2ccc(C(=O)O)cc2)c(=O)cc1-c1c(C(C)=O)ccc(Cl)c1F [Example 31, (S)-4-(2-(4-(6-acetyl-3-chloro-2-fluorophenyl)-5-methoxy-2-oxopyridin-1(2H)-yl)-3-phenylpropanamido)benzoic acid]
Human blood; Table 2
  CT2, concentration doubling APTT: 8.5 µM
[2]
  Vd/F: 21.6 ± 6.31 L/kg
  AUC: 414 ± 77 ng·h/mL
  CL/F: 82.5 ± 14.6 mL/min/kg
  half-life: 3.2 ± 1.41 h
  MRT: 3.24 ± 0.93 h
  Cmax: 234 ± 66 ng/mL

## COc1cn([C@@H](Cc2ccccn2)C(=O)Nc2ccc(C(=O)O)cc2)c(=O)cc1-c1cc(Cl)ccc1C(C)=O [Example 80, (S)-4-(2-(4-(2-acetyl-5-chlorophenyl)-5-methoxy-2-oxopyridin-1(2H)-yl)-3-(pyridin-2-yl)propanamido)benzoic acid]
[1]
  IC50: 40 nM
Human blood; Table 2
  CT2, concentration doubling APTT: 7.9 µM
[2]
  Vd/F: 15.8 ± 2.29 L/kg
  AUC: 158 ± 45 ng·h/mL
  CL/F: 222 ± 55.7 mL/min/kg
  half-life: 0.85 ± 0.14 h
  MRT: 1.85 ± 0.76 h
  Cmax: 126 ± 50 ng/mL

## COc1cn([C@@H](CCOC(C)(C)C)C(=O)Nc2ccc(C(=O)O)cc2)c(=O)cc1-c1cc(Cl)ccc1C(C)=O [Example 111, (S)-4-(2-(4-(2-acetyl-5-chlorophenyl)-5-methoxy-2-oxopyridin-1(2H)-yl)-4-(tert-butoxy)butanamido)benzoic acid]
[1]
  IC50: 18 nM
Human blood; Table 2
  CT2, concentration doubling APTT: 3.2 µM
[2]
  Vd/F: 36.7 ± 13.7 L/kg
  AUC: 378 ± 98 ng·h/mL
  CL/F: 94.1 ± 30.8 mL/min/kg
  half-life: 4.94 ± 2.33 h
  MRT: 4.41 ± 1.99 h
  Cmax: 252 ± 56 ng/mL

## CCC(=O)c1ccc(Cl)cc1-c1cc(=O)n([C@@H](CCOC(C)(C)C)C(=O)Nc2ccc3nccnc3c2)cc1OC [Example 114, (S)-4-(tert-butoxy)-2-(4-(5-chloro-2-propionylphenyl)-5-methoxy-2-oxopyridin-1(2H)-yl)-N-(quinoxalin-6-yl)butanamide]
[1]
  IC50: 27 nM
Human blood; Table 2
  CT2, concentration doubling APTT: 3.6 µM
Human blood; Table 3 comparison
  CT2, concentration doubling APTT: 2.9 µM
Human blood; human blood, from Table 3
  CT2 value ratio, Example 114 versus comparative Example 2: 4.5 times
[2]
  Vd/F: 24 ± 11.1 L/kg
  AUC: 168 ± 102 ng·h/mL
  CL/F: 278 ± 182 mL/min/kg
  half-life: 1.11 ± 0.25 h
  MRT: 1.67 ± 0.23 h
  Cmax: 91.2 ± 51.3 ng/mL
